Results taken from patent US6803186B2, “Compositions and methods for increasing amino acid absorption in mammals” (The IAMS Company, priority 2001, dated 2004).
Square brackets hold non-standard residues; d marks the D form. Peptide text beside a SMILES is read from it. Sar = CNCC(=O)O

Target: T1, canine PepT1 (cPepT1) (Canis lupus familiaris, UniProt Q8WMX5)
T1 construct: endogenous in cells; host or cells: MDCK (Madin-Darby Canine Kidney) cells, whole-cell [3H]-GlySar uptake
T1 sequence (Q8WMX5 1-708): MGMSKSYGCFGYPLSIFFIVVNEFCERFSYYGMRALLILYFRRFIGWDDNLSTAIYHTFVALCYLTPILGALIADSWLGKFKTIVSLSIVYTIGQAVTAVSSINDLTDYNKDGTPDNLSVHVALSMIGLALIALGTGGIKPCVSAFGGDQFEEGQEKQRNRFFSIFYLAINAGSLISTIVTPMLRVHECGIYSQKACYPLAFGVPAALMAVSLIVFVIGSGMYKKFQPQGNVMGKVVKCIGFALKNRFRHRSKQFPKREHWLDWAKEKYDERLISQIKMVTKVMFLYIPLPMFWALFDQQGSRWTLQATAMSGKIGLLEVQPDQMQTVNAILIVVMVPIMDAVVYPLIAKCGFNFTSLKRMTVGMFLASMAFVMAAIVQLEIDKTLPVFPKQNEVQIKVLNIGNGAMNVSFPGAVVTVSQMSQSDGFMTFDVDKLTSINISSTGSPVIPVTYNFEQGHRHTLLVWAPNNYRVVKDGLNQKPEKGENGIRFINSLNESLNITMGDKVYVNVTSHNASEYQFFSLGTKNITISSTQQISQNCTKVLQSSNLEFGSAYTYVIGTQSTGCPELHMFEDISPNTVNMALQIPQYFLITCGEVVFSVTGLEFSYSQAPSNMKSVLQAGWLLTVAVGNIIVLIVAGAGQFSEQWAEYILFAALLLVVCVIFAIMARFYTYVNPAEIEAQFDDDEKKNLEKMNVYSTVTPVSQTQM
Assay: Characterization of GlySar uptake by MDCK cells (Km, pH gradient, time course)
Format: cell-based
Details: for GlySar uptake in pH 6.0 buffer relative to pH 7.4 buffer: 100 μM GlySar
Description: Potential expression of PepT1 transport activity (H^+-dependent, dipeptide inhibitable, low-affinity dipeptide transport) by confluent MDCK cells was evaluated using whole-cell transport techniques and glycylsarcosine (GlySar) as a model dipeptide substrate. Cells were seeded at 60,000 cells/cm^2 into 24-well trays that had been coated with rat tail collagen or poly-L-lysine and cultured ([…]:5% CO2 at 37° C.) for 3 d in media consisting of Dulbecco's Modified Eagle Medium/10% fetal calf serum/1% antimicrobial antibacterial medium. Absorption (pmols/mg protein) of [^3H]-glycyl-L-sarcosine (GlySar, 6 mCi/mL, Moravek Biochemicals, Brea, Calif.) was determined using the 24-well cluster tray method and representative scintillation counting. Before transport, cells were incubated at 37° C. for 30 min in 25 mM Hepes/Tris (pH 7.5), 140 mM NaCl, 5.4 mM KCl, 1.8 mM CaCl2, 0.8 mM MgSO4, and 5 mM glucose (uptake buffer) to normalize intracellular amino acid and peptide pools. Transport was initiated by the addition of 0.25 mL of uptake buffer that contained 2.88 μm GlySar. After 30 min of uptake at 37° C., transport was terminated by rapid washing of cells with 4×2 mL 4° C. uptake buffer. Cellular protein was precipitated with 10% trichloroacetic acid and the supernatant recovered and counted to determine radioactivity (^3H) content. Cellular protein was then solubilized in 0.2 N NaOH and 0.2% SDS and quantified by the Lowry procedure, using bovine serum albumin as a standard. The amount of H^+-dependent GlySar absorbed was calculated as the difference between uptake in pH 6.0 and pH 7.5 uptake buffers. The amount of competitor substrate-inhibitable GlySar uptake was calculated as the quotient of GlySar uptake in the absence and presence of 10 mM competitor substrate (dipeptide or amino acid) multiplied by 100%.
To preliminarily characterize the kinetic parameters of peptide transport by MDCK cells, the uptake of GlySar in media that contained pH 6.0 and 0.00064, 0.0025, 0.010, 0.04, 0.160, 0.640, 2.56, or 10.2 mM of GlySar was measured (FIG. 6). […] Collectively, these characteristics of GlySar uptake are consistent with functional activity of PepT1 expressed by other species, as opposed to high-affinity, H^+-dependent uptake by PepT2 (μm Km).
Using the maximal uptake-stimulating culture parameters determined in Experiment 3, the effect of an extracellular-to-intracellular pH gradient on GlySar uptake was further evaluated to determine a pH level at which maximal GlySar uptake could be achieved, but which would replicate physiologic conditions (FIG. 10). As expected, the presence of a pH gradient stimulated (P<0.001) H^+-dependent GlySar uptake, in a quadratic (P<0.01) fashion. Uptake at pH 5.5 or 6.0 was about 2.7 times greater than that achieved at pH 7.5. […] Accordingly, the use pH 6.0 buffers for the characterization of H^+-dependent GlySar uptake was incorporated into the standard experimental conditions.
To determine the appropriate time period to measure initial (linear) rates of GlySar uptake, a by-minute time-course experiment was performed. […] GlySar uptake in pH 6.0 buffer at 3.75, 7.5, 15, 30, 60 and 120 min was about 2, 2.1, 2.25, 2.65, 2.79, and 2.62 times more (P<0.001), respectively, than uptake from pH 7.4 buffer. Because uptake was proportional to time of uptake through 1 h, future experiments were conducted using a 30-min time period.
To confirm that H^+-dependent GlySar uptake was saturable, and therefore mediated, the uptake of GlySar from pH 6.0 and 7.4 uptake buffers containing 0.025, 0.1, 0.4, 1.6, 6.4, or 25.6 mM GlySar was evaluated (FIG. 12). Uptake of GlySar was greatest (P<0.001) from the pH 6.0 buffers, at all concentrations.

In the case of CN(CC(=O)O)C(=O)CN [GlySar, glycylsarcosine] (H-Gly-[Sar]-OH), the “H+-dependent GlySar uptake at pH 5.5 or 6.0 relative to pH 7.5” value (2.88 μM GlySar, LHM 2 days (FIG. 10)) is reported as “about 2.7 times”, the “GlySar uptake in pH 6.0 buffer relative to pH 7.4 buffer” value (3.75 min) is reported as “about 2 times” and the “GlySar uptake in pH 6.0 buffer relative to pH 7.4 buffer” value (7.5 min) is reported as roughly 2.1 times. For the same compound, the “GlySar uptake in pH 6.0 buffer relative to pH 7.4 buffer” value (15 min) was roughly 2.25 times, the “GlySar uptake in pH 6.0 buffer relative to pH 7.4 buffer” value (30 min) was roughly 2.65 times and the “GlySar uptake in pH 6.0 buffer relative to pH 7.4 buffer” value (60 min) was roughly 2.79 times. The “GlySar uptake in pH 6.0 buffer relative to pH 7.4 buffer” value (120 min) was roughly 2.62 times, the “GlySar uptake at extracellular pH 6.0 relative to pH 7.5 medium” value (cells grown on poly-L-lysine) was 1.7 fold and the “GlySar uptake at extracellular pH 6.0 relative to pH 7.5 medium” value (cells plated on collagen) was 2.3 fold.
